Source: patent publication US20240132484A1, “BROAD SPECTRUM ANTIVIRAL COMPOUNDS TARGETING THE SKI COMPLEX” (priority 2020, published 2024)
Several values for one entry are separate records, joined by “and”; a condition that tells them apart may be missing. Identical values can stand only once. Like-named read-outs stand apart in the source and are kept apart here.

Assays:
[1] = system: cells (nuclei count)
[2] = system: SARS2; assay type: cell-based, SARS-CoV-2; conditions: for Percentage Infection Relative to Appropriate DMSO Control: avg background subtraction

Q: Cc1ccc(CN(CCN(C)C)Cc2cc(C#CCO)cs2)s1 [SILCS1] was tested. Which “Relative cell count to DMSO controls, Average 1 μM” value ([1]; 1 μM, toxicity data, 100=DMSO control) did it give?
A: 98.82

Q: What about the “Relative cell count to DMSO controls, Average 5 μM” value ([1]; 5 μM, toxicity data, 100=DMSO control) of the same compound?
A: 99.54

Q: What about the “Relative cell count to DMSO controls, Average 10 μM” value ([1]; 10 μM, toxicity data, 100=DMSO control) of the same compound?
A: 108.52

Q: What about the “Relative cell count to DMSO controls, Average 25 μM” value ([1]; 25 μM, toxicity data, 100=DMSO control) of the same compound?
A: 116.28

Q: What about the “Relative cell count to DMSO controls, Average 50 μM” value ([1]; 50 μM, toxicity data, 100=DMSO control) of the same compound?
A: 84.14

Q: What about the “Toxicity Data, Average, Mean” value ([1]; Average of Exp 1-3, n 9, 1 uM) of the same compound?
A: 98.82%

Q: What about the “Toxicity Data, Average, Mean” value ([1]; Average of Exp 1-3, n 9, 5 uM) of the same compound?
A: 99.54%

Q: And the “Toxicity Data, Average, Mean” value ([1]; Average of Exp 1-3, n 9, 10 uM)?
A: 108.52%

Q: What about the “Toxicity Data, Average, Mean” value ([1]; Average of Exp 1-3, n 9, 25 uM) of the same compound?
A: 116.28%

Q: What about the “Toxicity Data, Average, Mean” value ([1]; Average of Exp 1-3, n 9, 50 uM) of the same compound?
A: 84.14%

Q: And the “Toxicity Data, nuclei count relative to DMSO controls” value ([1]; Exp 1 (SMW454), 1 uM)?
A: 105.2% and 108.8% and 106.3%

Q: And the “Toxicity Data, nuclei count relative to DMSO controls” value ([1]; Exp 1 (SMW454), 5 uM)?
A: 102.9% and 104.5% and 102.2%

Q: What about the “Toxicity Data, nuclei count relative to DMSO controls” value ([1]; Exp 1 (SMW454), 10 uM) of the same compound?
A: 107.4% and 106.9% and 105.6%

Q: And the “Toxicity Data, nuclei count relative to DMSO controls” value ([1]; Exp 1 (SMW454), 25 uM)?
A: 94.7% and 94.9% and 95.9%

Q: And the “Toxicity Data, nuclei count relative to DMSO controls” value ([1]; Exp 1 (SMW454), 50 uM)?
A: 83.8% and 87.1% and 84.9%

Q: What about the “Toxicity Data, nuclei count relative to DMSO controls” value ([1]; Exp 2 (SMW466), 1 uM) of the same compound?
A: 93.5% and 94.5% and 96.6%

Q: What about the “Toxicity Data, nuclei count relative to DMSO controls” value ([1]; Exp 2 (SMW466), 5 uM) of the same compound?
A: 107.1% and 94.1% and 106.7%

Q: What about the “Toxicity Data, nuclei count relative to DMSO controls” value ([1]; Exp 2 (SMW466), 10 uM) of the same compound?
A: 107.3% and 102.2% and 104.0%

Q: And the “Toxicity Data, nuclei count relative to DMSO controls” value ([1]; Exp 2 (SMW466), 25 uM)?
A: 130.6% and 124.7% and 133.0%

Q: And the “Toxicity Data, nuclei count relative to DMSO controls” value ([1]; Exp 2 (SMW466), 50 uM)?
A: 88.5% and 77.1% and 78.5%

Q: What about the “Toxicity Data, nuclei count relative to DMSO controls” value ([1]; Exp 3 (SMW480), 1 uM) of the same compound?
A: 89.7% and 102.3% and 92.4%

Q: And the “Toxicity Data, nuclei count relative to DMSO controls” value ([1]; Exp 3 (SMW480), 5 uM)?
A: 88.1% and 95.7% and 94.5%

Q: What about the “Toxicity Data, nuclei count relative to DMSO controls” value ([1]; Exp 3 (SMW480), 10 uM) of the same compound?
A: 124.6% and 98.4% and 120.2%

Q: What about the “Toxicity Data, nuclei count relative to DMSO controls” value ([1]; Exp 3 (SMW480), 25 uM) of the same compound?
A: 120.8% and 130.3% and 121.5%

Q: And the “Toxicity Data, nuclei count relative to DMSO controls” value ([1]; Exp 3 (SMW480), 50 uM)?
A: 72.1% and 98.8% and 86.4%

Q: And the “Relative cell count to DMSO controls, Average (for correlation analysis)” value ([1]; average value over the 5 tested concentrations (1 to 50 uM))?
A: 101.46

Q: And the “Percentage Infection Relative to Appropriate DMSO Control” value ([2]; 1 uM, Exp 1 (SMW454), single wells)?
A: 99.35% and 98.10% and 99.72%

Q: And the “Percentage Infection Relative to Appropriate DMSO Control” value ([2]; 5 uM, Exp 1 (SMW454), single wells)?
A: 112.30% and 117.54% and 117.35%

Q: What about the “Percentage Infection Relative to Appropriate DMSO Control” value ([2]; 10 uM, Exp 1 (SMW454), single wells) of the same compound?
A: 107.68% and 118.84% and 98.07%

Q: What about the “Percentage Infection Relative to Appropriate DMSO Control” value ([2]; 25 uM, Exp 1 (SMW454), single wells) of the same compound?
A: 103.38% and 104.01% and 105.61%

Q: And the “Percentage Infection Relative to Appropriate DMSO Control” value ([2]; 50 uM, Exp 1 (SMW454), single wells)?
A: 103.48% and 93.04% and 95.93%

Q: What about the “Infection Data, Average, Mean” value ([2]; Average of Exp 1-3, n 9, 1 uM) of the same compound?
A: 122.42%

Q: What about the “Infection Data, Average, Mean” value ([2]; Average of Exp 1-3, n 9, 5 uM) of the same compound?
A: 119.79%

Q: And the “Infection Data, Average, Mean” value ([2]; Average of Exp 1-3, n 9, 10 uM)?
A: 100.52%

Q: And the “Infection Data, Average, Mean” value ([2]; Average of Exp 1-3, n 9, 25 uM)?
A: 61.83%

Q: And the “Infection Data, Average, Mean” value ([2]; Average of Exp 1-3, n 9, 50 uM)?
A: 43.32%

Q: What about the “Percentage Infection Relative to Appropriate DMSO Control” value ([2]; Exp 2 (SMW466), 1 uM) of the same compound?
A: 148.68% and 144.39% and 143.85%

Q: What about the “Percentage Infection Relative to Appropriate DMSO Control” value ([2]; Exp 2 (SMW466), 5 uM) of the same compound?
A: 114.43% and 126.13% and 128.85%

Q: And the “Percentage Infection Relative to Appropriate DMSO Control” value ([2]; Exp 2 (SMW466), 10 uM)?
A: 102.74% and 102.52% and 110.68%

Q: And the “Percentage Infection Relative to Appropriate DMSO Control” value ([2]; Exp 2 (SMW466), 25 uM)?
A: 28.51% and 36.47% and 30.25%

Q: What about the “Percentage Infection Relative to Appropriate DMSO Control” value ([2]; Exp 3 (SMW480), 1 uM) of the same compound?
A: 128.15% and 110.09% and 129.44%

Q: And the “Percentage Infection Relative to Appropriate DMSO Control” value ([2]; Exp 3 (SMW480), 5 uM)?
A: 127.64% and 114.03% and 119.89%

Q: And the “Percentage Infection Relative to Appropriate DMSO Control” value ([2]; Exp 3 (SMW480), 10 uM)?
A: 73.36% and 110.69% and 80.10%

Q: What about the “Percentage Infection Relative to Appropriate DMSO Control” value ([2]; Exp 3 (SMW480), 25 uM) of the same compound?
A: 55.94% and 38.83% and 53.44%

Q: And the “Percentage Infection Relative to Appropriate DMSO Control” value ([2]; Exp 3 (SMW480), 50 uM)?
A: 27.26% and 20.30% and 23.61%

Q: And the “Percentage Inhibition Average 1 μM” value ([2]; SARS2, 1 μM)?
A: −22.42%

Q: And the “Screening data (Relative infection to DMSO controls) Average 1 μM” value ([2]; SARS2, 1 μM, 100=DMSO control)?
A: 122.42

Q: What about the “Percentage Inhibition Average 5 μM” value ([2]; SARS2, 5 μM) of the same compound?
A: −19.79%

Q: What about the “Screening data (Relative infection to DMSO controls) Average 5 μM” value ([2]; SARS2, 5 μM, 100=DMSO control) of the same compound?
A: 119.79

Q: And the “Percentage Inhibition Average 10 μM” value ([2]; SARS2, 10 μM)?
A: −0.52%

Q: What about the “Screening data (Relative infection to DMSO controls) Average 10 μM” value ([2]; SARS2, 10 μM, 100=DMSO control) of the same compound?
A: 100.52

Q: What about the “Percentage Inhibition Average 25 μM” value ([2]; SARS2, 25 μM) of the same compound?
A: 38.17%

Q: And the “Screening data (Relative infection to DMSO controls) Average 25 μM” value ([2]; SARS2, 25 μM, 100=DMSO control)?
A: 61.83

Q: And the “Percentage Inhibition Average 50 μM” value ([2]; SARS2, 50 μM)?
A: 56.68%

Q: And the “Screening data (Relative infection to DMSO controls) Average 50 μM” value ([2]; SARS2, 50 μM, 100=DMSO control)?
A: 43.32

Q: What about the “Average (relative infection to DMSO over the 5 tested concentrations)” value ([2]; SARS2, average over 1 to 50 uM, 100=DMSO control) of the same compound?
A: 89.58
